{"source": "patent US20140242180A1", "about": "“NANOPARTICLES FOR CONTROLLING BLEEDING AND DRUG DELIVERY” (CASE WESTERN RESERVE UNIVERSITY, priority 2011, published 2014)", "test_system": "activated platelets", "assay": "in vitro screening of activated labeled platelets binding to polymer-modified surfaces", "type": "cell-based", "details": "preliminary work; PEG 4600", "from_the_text": "An in vitro system was developed for high throughput screening of the coagulation efficiency of the synthetic platelets with the platelets labeled using CellTracker green following to facilitate ease of analysis. Essentially, this assay involves activating platelets which have been previously labeled with CellTracker and looking at the number that bind to surfaces modified with a polymer systems under agitation. This assay was validated with collagen. This system allowed one to efficiently and independently vary the PEG molecular weight and RGD motif (i.e. RGD, RGDS, and GRGDS).", "note": "“Also recorded” adds a separate entry of the source."}
{"substance": "GRGDS [GRGDS peptide]", "values": [{"measurement": "adhesion and aggregation of activated platelets", "value": "efficient adhesion and aggregation; also recorded: good binding and adhesion"}]}
